Results reported in PubChem BioAssay (NCI).
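Each compound was tested at five concentrations against cells in 96-well plates for 48 hours. TGI is the concentration that stops growth completely.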

What was measured:
Test in all cases: NCI-60 cell line screen, 48 h
DMS 114 small cell lung = test system: DMS 114 small cell lung
DMS 273 small cell lung = test system: DMS 273 small cell lung
LXFL 529 NSCLC = test system: LXFL 529 NSCLC
M19-MEL melanoma = test system: M19-MEL melanoma
XF 498 CNS = test system: XF 498 CNS

Measured: TGI

Cn1nc(-c2ccccc2)c(N=[N+]=[N-])cc1=O
> 100 µM: all assays above
